Key:
Format in all cases: biochemical
JAK2 = JAK2 (Homo sapiens, UniProt O60674); test: JAK kinase activity, homogeneous time-resolved fluorescence (JAK2 reaction system); details: ATP 2 μM, JAK2 protein 0.01 ng/μL
Outline: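 IC50 derived by Hill-equation fit of the 665/615 nm time-resolved fluorescence ratio after EDTA-containing detection mix with anti-phosphosubstrate antibody. Preceding 1 h reaction contained 2 μM ATP, 0.01 ng/μL JAK2, substrate, 50 mM Hepes pH 7.0, 5 mM MgCl2, 1 mM DTT.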

JAK3 = target: T1, JAK3 (Homo sapiens, UniProt P52333); test: JAK kinase activity, homogeneous time-resolved fluorescence (JAK3 reaction system); details: ATP 2 μM, JAK3 protein 0.04 ng/μL; read-out: JAK 3 activity
T1 sequence (P52333 1-1124): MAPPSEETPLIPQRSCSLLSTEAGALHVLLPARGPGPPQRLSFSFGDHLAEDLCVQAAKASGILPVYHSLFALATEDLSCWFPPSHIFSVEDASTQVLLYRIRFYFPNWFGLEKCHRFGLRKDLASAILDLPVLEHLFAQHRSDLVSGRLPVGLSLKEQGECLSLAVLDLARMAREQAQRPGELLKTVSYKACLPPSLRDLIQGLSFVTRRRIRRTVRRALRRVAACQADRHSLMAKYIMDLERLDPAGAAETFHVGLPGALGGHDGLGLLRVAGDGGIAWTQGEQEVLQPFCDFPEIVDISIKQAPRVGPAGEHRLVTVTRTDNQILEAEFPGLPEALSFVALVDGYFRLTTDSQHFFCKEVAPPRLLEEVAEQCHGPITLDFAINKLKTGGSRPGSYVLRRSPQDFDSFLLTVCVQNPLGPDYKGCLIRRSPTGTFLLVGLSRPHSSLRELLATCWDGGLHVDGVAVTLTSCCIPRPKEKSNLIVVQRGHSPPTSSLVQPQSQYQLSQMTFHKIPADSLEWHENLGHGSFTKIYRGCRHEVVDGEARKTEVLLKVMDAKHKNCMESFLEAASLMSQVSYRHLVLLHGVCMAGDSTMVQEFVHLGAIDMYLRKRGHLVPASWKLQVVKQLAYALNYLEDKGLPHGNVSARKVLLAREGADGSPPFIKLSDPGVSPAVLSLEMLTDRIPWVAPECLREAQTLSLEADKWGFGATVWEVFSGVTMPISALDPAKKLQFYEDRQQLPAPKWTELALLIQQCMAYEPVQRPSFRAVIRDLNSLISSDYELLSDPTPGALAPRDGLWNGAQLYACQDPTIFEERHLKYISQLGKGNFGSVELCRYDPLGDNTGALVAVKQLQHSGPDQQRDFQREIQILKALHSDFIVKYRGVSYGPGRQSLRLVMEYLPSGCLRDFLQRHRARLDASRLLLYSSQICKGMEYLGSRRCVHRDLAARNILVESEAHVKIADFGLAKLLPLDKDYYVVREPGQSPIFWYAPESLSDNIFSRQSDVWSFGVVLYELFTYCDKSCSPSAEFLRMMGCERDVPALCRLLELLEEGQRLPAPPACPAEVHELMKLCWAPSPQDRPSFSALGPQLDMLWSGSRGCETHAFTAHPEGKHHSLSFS

JAK1 = JAK1 (Homo sapiens, UniProt P23458); test: JAK kinase activity, homogeneous time-resolved fluorescence (JAK1 reaction system); details: ATP 2 μM, JAK1 protein 0.2 ng/μL; read-out: JAK 1 activity
JAK1, sequence (P23458 whole entry): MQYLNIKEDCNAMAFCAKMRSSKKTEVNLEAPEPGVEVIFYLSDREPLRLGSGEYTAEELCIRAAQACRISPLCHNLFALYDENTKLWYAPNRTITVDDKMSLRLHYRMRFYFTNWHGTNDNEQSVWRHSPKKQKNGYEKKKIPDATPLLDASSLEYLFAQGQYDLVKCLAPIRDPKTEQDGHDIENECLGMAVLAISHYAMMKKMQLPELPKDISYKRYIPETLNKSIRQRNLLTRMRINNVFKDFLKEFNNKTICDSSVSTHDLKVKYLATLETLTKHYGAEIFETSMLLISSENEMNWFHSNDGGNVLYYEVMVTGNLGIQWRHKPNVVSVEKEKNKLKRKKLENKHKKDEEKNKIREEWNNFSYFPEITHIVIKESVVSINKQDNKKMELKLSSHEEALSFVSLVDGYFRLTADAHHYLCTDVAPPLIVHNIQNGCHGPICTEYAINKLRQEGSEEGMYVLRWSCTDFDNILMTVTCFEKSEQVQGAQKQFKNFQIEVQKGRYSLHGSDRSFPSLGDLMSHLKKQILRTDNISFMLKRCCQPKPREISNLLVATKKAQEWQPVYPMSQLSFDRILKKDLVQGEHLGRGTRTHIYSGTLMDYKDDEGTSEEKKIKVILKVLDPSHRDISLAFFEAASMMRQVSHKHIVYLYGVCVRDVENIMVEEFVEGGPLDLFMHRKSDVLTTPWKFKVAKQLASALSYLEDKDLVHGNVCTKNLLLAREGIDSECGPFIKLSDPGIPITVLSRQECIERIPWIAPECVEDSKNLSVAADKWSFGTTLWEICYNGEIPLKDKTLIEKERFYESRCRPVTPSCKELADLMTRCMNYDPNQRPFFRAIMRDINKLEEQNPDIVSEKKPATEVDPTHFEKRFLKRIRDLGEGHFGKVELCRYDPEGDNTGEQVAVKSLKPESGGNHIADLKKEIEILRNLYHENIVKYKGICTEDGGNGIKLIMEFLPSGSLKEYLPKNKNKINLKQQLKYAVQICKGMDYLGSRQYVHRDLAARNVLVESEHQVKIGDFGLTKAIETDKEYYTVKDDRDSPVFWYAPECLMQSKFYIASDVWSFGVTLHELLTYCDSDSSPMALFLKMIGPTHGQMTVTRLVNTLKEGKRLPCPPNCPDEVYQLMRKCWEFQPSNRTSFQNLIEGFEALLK
Outline: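 Kinase activity read as the 665 nm/615 nm time-resolved fluorescence ratio (320 nm excitation) after EDTA-containing antibody and XL-615 addition. Reaction ran 1 h at pH 7.0 (Hepes, MgCl2, DTT) with 0.2 ng/μL JAK1 and ATP at 2 μM. IC50 derived by Hill-slope fit.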

TYK2 = TYK2 (Homo sapiens, UniProt P29597); test: JAK kinase activity, homogeneous time-resolved fluorescence (TYK2 reaction system); details: ATP 2 μM, TYK2 protein 0.2 ng/μL; read-out: TYK 2 activity
TYK2, sequence (P29597 whole entry): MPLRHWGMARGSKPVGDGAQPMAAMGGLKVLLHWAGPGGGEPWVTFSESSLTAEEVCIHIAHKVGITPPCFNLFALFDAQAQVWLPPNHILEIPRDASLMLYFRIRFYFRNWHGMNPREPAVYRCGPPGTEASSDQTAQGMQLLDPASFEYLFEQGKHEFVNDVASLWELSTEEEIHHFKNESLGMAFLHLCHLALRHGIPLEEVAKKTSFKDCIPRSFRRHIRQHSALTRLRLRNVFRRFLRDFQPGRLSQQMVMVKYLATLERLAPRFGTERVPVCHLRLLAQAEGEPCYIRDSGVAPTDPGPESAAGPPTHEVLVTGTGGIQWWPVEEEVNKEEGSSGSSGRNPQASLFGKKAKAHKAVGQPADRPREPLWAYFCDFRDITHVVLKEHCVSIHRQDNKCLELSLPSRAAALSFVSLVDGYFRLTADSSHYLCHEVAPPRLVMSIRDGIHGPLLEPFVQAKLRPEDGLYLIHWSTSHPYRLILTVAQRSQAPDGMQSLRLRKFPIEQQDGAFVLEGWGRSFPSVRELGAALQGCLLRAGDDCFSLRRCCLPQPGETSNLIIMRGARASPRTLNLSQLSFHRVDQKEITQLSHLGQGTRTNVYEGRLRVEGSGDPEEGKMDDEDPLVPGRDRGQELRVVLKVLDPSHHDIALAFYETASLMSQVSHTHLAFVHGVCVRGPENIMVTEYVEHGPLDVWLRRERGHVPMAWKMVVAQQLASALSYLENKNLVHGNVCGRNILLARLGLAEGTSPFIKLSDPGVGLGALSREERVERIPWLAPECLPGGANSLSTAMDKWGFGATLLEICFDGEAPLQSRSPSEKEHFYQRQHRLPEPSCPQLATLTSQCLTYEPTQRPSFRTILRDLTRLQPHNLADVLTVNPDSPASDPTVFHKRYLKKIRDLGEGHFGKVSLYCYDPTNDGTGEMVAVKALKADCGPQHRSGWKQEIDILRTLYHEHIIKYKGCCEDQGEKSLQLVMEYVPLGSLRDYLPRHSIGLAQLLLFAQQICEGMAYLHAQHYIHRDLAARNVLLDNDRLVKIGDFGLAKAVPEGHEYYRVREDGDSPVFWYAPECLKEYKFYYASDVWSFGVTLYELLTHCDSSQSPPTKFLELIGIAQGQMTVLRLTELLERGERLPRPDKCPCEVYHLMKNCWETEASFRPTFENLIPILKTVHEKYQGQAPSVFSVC
Outline: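 Activity read as the 665 nm/615 nm ratio after adding EDTA-containing detection mix with anti-phospho-substrate antibody and XL-615. Beforehand, 0.2 ng/μL TYK2, 2 μM ATP, substrate and compound reacted 1 h in pH 7.0 Hepes buffer with MgCl2 and DTT. IC50 fitted with Hill-slope equation.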

JAK2, sequence (O60674 whole entry): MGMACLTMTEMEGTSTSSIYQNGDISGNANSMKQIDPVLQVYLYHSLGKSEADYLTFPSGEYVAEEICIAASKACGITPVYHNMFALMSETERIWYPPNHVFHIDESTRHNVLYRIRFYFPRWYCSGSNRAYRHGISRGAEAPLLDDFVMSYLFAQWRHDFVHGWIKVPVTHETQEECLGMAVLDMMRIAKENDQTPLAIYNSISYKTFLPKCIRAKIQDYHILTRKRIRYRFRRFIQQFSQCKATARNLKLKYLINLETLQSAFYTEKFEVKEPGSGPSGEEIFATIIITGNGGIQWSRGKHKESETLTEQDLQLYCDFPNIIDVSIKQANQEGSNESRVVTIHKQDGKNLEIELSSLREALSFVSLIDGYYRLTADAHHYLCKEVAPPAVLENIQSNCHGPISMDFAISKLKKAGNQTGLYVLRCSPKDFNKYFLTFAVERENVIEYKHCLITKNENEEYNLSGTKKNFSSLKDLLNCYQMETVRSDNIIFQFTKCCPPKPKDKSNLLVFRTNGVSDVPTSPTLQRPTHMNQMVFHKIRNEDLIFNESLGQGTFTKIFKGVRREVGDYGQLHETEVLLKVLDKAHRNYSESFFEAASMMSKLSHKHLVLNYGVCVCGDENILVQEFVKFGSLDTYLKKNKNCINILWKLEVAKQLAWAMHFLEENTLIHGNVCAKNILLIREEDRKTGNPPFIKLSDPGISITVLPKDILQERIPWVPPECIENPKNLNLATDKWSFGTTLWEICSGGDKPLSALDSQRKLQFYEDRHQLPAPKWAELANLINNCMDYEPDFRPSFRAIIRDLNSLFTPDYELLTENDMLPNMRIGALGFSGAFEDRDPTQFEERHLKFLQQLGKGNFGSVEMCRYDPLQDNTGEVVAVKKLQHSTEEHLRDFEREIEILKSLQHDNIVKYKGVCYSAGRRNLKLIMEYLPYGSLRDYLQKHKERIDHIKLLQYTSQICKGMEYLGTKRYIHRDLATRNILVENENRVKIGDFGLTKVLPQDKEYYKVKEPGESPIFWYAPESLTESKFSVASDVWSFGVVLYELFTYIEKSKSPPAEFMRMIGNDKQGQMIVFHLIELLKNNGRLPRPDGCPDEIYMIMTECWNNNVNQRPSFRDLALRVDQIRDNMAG

IC50 (JAK2) [nM]	IC50 (JAK3) [nM]	IC50 (JAK1) [nM]	IC50 (TYK2) [nM]	SMILES
101 to 1000	11 to 100	101 to 1000	1000 to 10000	Nc1cc2ccc1-c1ccnc(n1)Nc1cccc(c1)COCCCCNC2=O [Example 54, 1^2-amino-6-oxa-3,11-diaza-2(4,2)-py-rimidina-1(1,4),4(1,3)-dibenzena-cyclododecaphan-12-one]
101 to 1000	< 10	101 to 1000	101 to 1000	CC1CCOCc2cc(ccc2OCC2CCOC2)Nc2nccc(n2)-c2ccc(cc2N)C(=O)NC1 (stereo not shown) [Example 167, 1-amino-9-methyl-4^4-((tetahydro-furan-3-yl)methoxy)-6-oxa-3,11-diaza-2(4,2)-pyrimidina-1(1,4),4(1,3)-dibenzenacyclododecaphan-12-one]
1000 to 10000	1000 to 10000	1000 to 10000	> 10000	O=C1NCCCCOCc2cc(ccc2Br)Nc2nccc(n2)-c2ccc1cc2[N+](=O)[O-] [Example 89, 4^4-bromo-1^2-nitro-6-oxa-3,11-diaza-2(4,2)-pyrimidina-1(1,4),4(1,3)-di-benzenacyclododecaphan-12-one]
1000 to 10000	1000 to 10000	> 10000	> 10000	O=C1Nc2ccc(cc2)OCc2cc(ccc2OCC2CC(F)(F)C2)Nc2nccc(n2)-c2ccc1cc2[N+](=O)[O-] [Example 209, 4^4-((3,3-difluorocyclobutyl)methoxy)-1^2-nitro-6-oxa-3,8-diaza-2(4,2)-pyrimidina-1,7(1,4),4(1,3)-tri-benzenacyclononaphane-9-one]
1000 to 10000	1000 to 10000	1000 to 10000	> 10000	O=C1NCCCCOCc2cc(ccc2N2CCOCC2)Nc2nccc(n2)-c2ccc1cc2C(F)(F)F [Example 19, 4^4-morpholin-1^2-trifluoromethyl-6-oxa-3,11-diaza-2(4,2)-pyrimi-dina-1(1,4),4(1,3)-dibenzenacyclododecaphan-12-one]
11 to 100	< 10	101 to 1000	1000 to 10000	Nc1cc2ccc1-c1ccnc(n1)Nc1ccc(OC3CCCOC3)c(c1)COCCCCNC2=O (stereo not shown) [Example 114, 1^2-amino-4^4-((tetrahydro-2H-pyran-3-yl)oxy)-6-oxa-3,11-diaza-2(4,2)-pyrimidina-1(1,4),4(1,3)-di-benzenacyclododecaphan-12-one]
> 10000	1000 to 10000	> 10000	> 10000	CC1(C)CCNC(=O)c2ccc(c(N)c2)-c2ccnc(n2)Nc2ccc(OC3CC3)c(c2)COC1 [Example 176, 1^2-amino-4^4-cyclopropoxy-8,8-di-methyl-6-oxa-3,11-diaza-2(4,2)-py-rimidina-1(1,4),4(1,3)-dibenzena-cyclododecaphan-12-one]
1000 to 10000	1000 to 10000	1000 to 10000	> 10000	Cc1cc2ccc1-c1nc(ncc1C)Nc1ccc(F)c(c1)COCCCCNC2=O [Example 45, 1^2,2^5-dimethyl-4^4-fluoro-6-oxa-3,11-diaza-2(4,2)-pyrimidina-1(1,4),4(1,3)-dibenzenacyclododecaphan-12-one]
101 to 1000	11 to 100	1000 to 10000	101 to 1000	Cc1cc2ccc1-c1ccnc(n1)Nc1ccc(N3CCCCC3)c(c1)COCCCCNC2=O [Example 42, 1^2-methyl-4^4-(piperidin-1-)-6-oxa-3,11-diaza-2(4,2)-pyrimidina-1(1,4),4(1,3)-dibenzenacyclododecaphan-12-one]
101 to 1000	11 to 100	1000 to 10000	1000 to 10000	Nc1cc2ccc1-c1ccnc(n1)Nc1ccc(OC3COC3)c(c1)COCCCCNC2=O [Example 75, 1^2-amino-4^4-(oxetan-3-oxy)-6-oxa-3,11-diaza-2(4,2)-pyrimidina-1(1,4),4(1,3)-dibenzenacyclododecaphan-12-one]
11 to 100	< 10	101 to 1000	101 to 1000	C[C@@H]1CCOCc2cc(ccc2OC2CC2)Nc2nccc(n2)-c2ccc(cc2N)C(=O)NC1 [Example 181, (R)-1^2-amino-4^4-cyclopropxy-9-methyl-6-ox-3,11-diaza-2 (4,2)-pyrimidina-1(1,4),4(1,3)-di-benzenacyclododecaphan-12-one]
101 to 1000	101 to 1000	1000 to 10000	1000 to 10000	COc1cc2ccc1-c1ccnc(n1)Nc1ccc(N3CCOCC3)c(c1)COCCCCNC2=O [Example 21, 1^2-methoxy-4^4-morpholin-6-oxa-3,11-diaza-2(4,2)-pyrimidina-1(1,4),4(1,3)-dibenzenacyclododecaphan-12-one]
11 to 100	11 to 100	101 to 1000	101 to 1000	COc1cnc2nc1-c1ccc(cc1)C(=O)NCCCCOCc1cc(ccc1N1CCOCC1)N2 [Example 26, 2^5-methoxy-4^4-morpholin-6-oxa-3,11-diaza-2(4,2)-pyrimidina-1(1,4),4(1,3)-dibenzenacyclododecaphan-12-one]
1000 to 10000	101 to 1000	> 10000	> 10000	O=C1NCCCCOCc2cc(ccc2OCC2CCCOC2)Nc2nccc(n2)-c2ccc1cc2[N+](=O)[O-] (stereo not shown) [Example 146, 1^2-nitro-4^4-((tetrahydro-2H-pyran-3-yl)methoxy)-6-oxa-3,11-diaza-2(4,2)-pyrimidina-1(1,4),4(1,3)-dibenzenacyclododecaphan-12-one]
1000 to 10000	101 to 1000	1000 to 10000	> 10000	CC1CCNC(=O)c2ccc(c([N+](=O)[O-])c2)-c2ccnc(n2)Nc2ccc(OCC3CCCOC3)c(c2)COC1 (stereo not shown) [Example 139, 8-methyl-1^2-nitro-4^4-((tetrahydro-2H-pyran-3-yl)methoxy)-6-oxa-3,11-diaza-2(4,2)-pyrimidina-1(1,4),4(1,3)-dibenzenacyclododecaphan-12-one]
1000 to 10000	1000 to 10000	> 10000	> 10000	O=C1NCCCCOCc2cc(ccc2Oc2cccc(F)c2)Nc2nccc(n2)-c2ccc1cc2[N+](=O)[O-] [Example 101, 4^4-(3-fluorophenoxy)-1^2-nitro-6-oxa-3,11-diaza-2(4,2)-pyrimidina-(1,4),4(1,3)-dibenzenacyclododeca-phan-12-one]

SMILES	IC50 (JAK2) [nM]	IC50 (JAK3) [nM]	IC50 (JAK1) [nM]	IC50 (TYK2) [nM]
O=C1NCCCCOCc2cc(ccc2OC2CCCC2)Nc2nccc(n2)-c2ccc1cc2F [Example 92, 4^4-cyclopentoxy-1^2-fluoro-6-oxa-3,11-diaza-2(4,2)-pyrimidina-1(1,4),4(1,3)-dibenzenacyclododecaphan-12-one]	101 to 1000	11 to 100	1000 to 10000	1000 to 10000
CC(C)COc1ccc2cc1COc1ccc(cc1)NC(=O)c1ccc(c(N)c1)-c1ccnc(n1)N2 [Example 202, 1^2-amino-4^4-isobutoxy-6-oxa-3,8-di-aza-2(4,2)-pyrimidina-1,7(1,4),4(1,3)-tribenzenacyclononaphane-9-one]	1000 to 10000	11 to 100	1000 to 10000	> 10000
O=C1NCCCCOCc2cc(ccc2OC2CCC2)Nc2nccc(n2)-c2ccc1cc2[N+](=O)[O-] [Example 71, 4^4-cyclobutoxy-1^2-nitro-6-oxa-3,11-diaza-2(4,2)-pyrimidina-1(1,4),4(1,3)-dibenzenacyclododecaphan-12-one]	> 10000	1000 to 10000	> 10000	> 10000
